Assay results as given in publication PMC8558150 (Acta Pharmaceutica Sinica. B, 2021).
Where two headings read alike, the source gives them in different places. Peptide text beside a SMILES is read from it.

Tests used:
SARS CoV-2 M^pro [1] = target: T1, SARS CoV-2 M^pro (Severe acute respiratory syndrome coronavirus 2, UniProt P0DTD1); type: cell-based
SARS CoV-2 M^pro [2] = target: T1, SARS CoV-2 M^pro; type: biochemical
SARS-CoV-2 = conditions: read-out: EC50, secondary viral yield reduction assay; Vero E6 cells; cited from earlier work
[3] = system: SARS-CoV-2 (isolate USA-WA1/2020); assay: Antiviral immunofluorescence assay in Calu-3 cells; type: cell-based; conditions: read-out: Antiviral EC50 in Calu-3 cells
cathepsin L = conditions: read-out: cathepsin L IC50; cited from earlier work
SARS-CoV-2 M^pro = conditions: cited from earlier work; for IC50: read-out: FRET IC50
SARS CoV-2 M^pro [4] = target: T1, SARS CoV-2 M^pro; conditions: cited from earlier work
SARS-CoV M^pro = conditions: read-out: SARS-CoV M^pro IC50; cited from earlier work
SARS CoV-2 M^pro [5] = target: T1, SARS CoV-2 M^pro; assay: Thermal shift assay; type: binding

Row | SMILES | result in FlipGFP assay (in words) (SARS CoV-2 M^pro [1]) | result in Protease-Glo luciferase assay (in words) (SARS CoV-2 M^pro [2]) | further results
1 | CCC(C)SSc1ncc[nH]1 (centres unmarked) [PX-12] | no inhibitory activity | no inhibitory activity | –
2 | COC(=O)N[C@H](C(=O)N[C@@H](Cc1ccccc1)[C@@H](O)CN(Cc1ccc(-c2ccccn2)cc1)NC(=O)[C@@H](NC(=O)OC)C(C)(C)C)C(C)(C)C [atazanavir] | not conclusive | – | –
3 | O=c1cc(-c2ccccc2)oc2cc(O)c(O)c(O)c12 [baicalein] | no inhibition | no inhibition | –
4 | CC(C)(C)NC(=O)N[C@H](C(=O)N1C[C@H]2[C@@H]([C@H]1C(=O)NC(CC1CCC1)C(=O)C(N)=O)C2(C)C)C(C)(C)C (some centres unmarked) [boceprevir] | – | – | EC50 (SARS-CoV-2): 1950 nM
5 | CSCC[C@@H](C=O)NC(=O)[C@H](CC(C)C)NC(=O)[C@H](CC(C)C)NC(C)=O [calpain inhibitor II] (Ac-Leu-Leu-Met-aldehyde) | – | – | EC50 [3]: 30300 nM; IC50 (cathepsin L): 0.41 nM
6 | CCCC(NC(=O)C(CC(C)C)NC(=O)OCc1ccccc1)C(=O)C(=O)NCc1ccccn1 (centres unmarked) [calpain inhibitor XII] | – | – | EC50 [3]: 14800 nM; IC50 (cathepsin L): 1.62 nM
7 | CCOc1nc2cccc(C(=O)O)c2n1Cc1ccc(-c2ccccc2-c2nnn[nH]2)cc1 [candesartan] | – | – | Ki (SARS-CoV-2 M^pro): 180 ± 20 nM; IC50 (SARS-CoV-2 M^pro): 2800 ± 300 nM
8 | CCCCCCNC(=O)n1cc(F)c(=O)[nH]c1=O [carmofur] | no inhibitory activity | no inhibitory activity | –
9 | CCN(CC)CCCC(C)Nc1ccnc2cc(Cl)ccc12 (centres unmarked) [chloroquine] | – | – | Ki (SARS-CoV-2 M^pro): 560 ± 120 nM
10 | CC(C)c1nc(CN(C)C(=O)N[C@@H](CCN2CCOCC2)C(=O)N[C@H](CC[C@H](Cc2ccccc2)NC(=O)OCc2cncs2)Cc2ccccc2)cs1 [cobicistat] | not conclusive | – | –
11 | CCN(CC)C(=S)SSC(=S)N(CC)CC [disulfiram] | no inhibition | no inhibition | –
12 | O=c1c2ccccc2[se]n1-c1ccccc1 [ebselen] | no inhibition | no inhibition | M^pro inhibition in FRET assay in the presence of DTT or GSH (in words) (SARS CoV-2 M^pro [4]): completely lost the M^pro inhibition
13 | Cc1cccc(C)c1OCC(=O)N[C@@H](Cc1ccccc1)[C@@H](O)C[C@H](Cc1ccccc1)NC(=O)[C@H](C(C)C)N1CCCNC1=O [lopinavir] | not conclusive | not active | IC50 (SARS-CoV M^pro): 50000 nM
14 | COC(=O)C1=C(C)NC(C)=C(C(=O)OCCN2CCN(C(c3ccccc3)c3ccccc3)CC2)C1c1cccc([N+](=O)[O-])c1 (centres unmarked) [manidipine] | no activity | no activity | binding to M^pro in thermal shift assay (in words) (SARS CoV-2 M^pro [5]): did not show binding; IC50 (SARS-CoV-2 M^pro; in the presence of 0.05% Tween-20): > 100000 nM
15 | Cc1c(O)cccc1C(=O)N[C@@H](CSc1ccccc1)[C@H](O)CN1C[C@H]2CCCC[C@H]2C[C@H]1C(=O)NC(C)(C)C [nelfinavir] | not conclusive | – | –
16 | CN(C)[C@@H]1C(O)=C(C(N)=O)C(=O)[C@@]2(O)C(O)=C3C(=O)c4c(O)cccc4[C@@](C)(O)[C@H]3[C@H](O)[C@@H]12 [oxytetracycline] | – | – | Ki (SARS-CoV-2 M^pro): 990 ± 60 nM
17 | CC(C)c1nc(CN(C)C(=O)N[C@H](C(=O)N[C@@H](Cc2ccccc2)C[C@H](O)[C@H](Cc2ccccc2)NC(=O)OCc2cncs2)C(C)C)cs1 [ritonavir] | not active | not active | –
18 | CC(C)=CC[C@@H](O)C1=CC(=O)c2c(O)ccc(O)c2C1=O [shikonin] | no inhibition | no inhibition | M^pro inhibition in FRET assay in the presence of DTT or GSH (in words) (SARS CoV-2 M^pro [4]): no inhibition
19 | CCC[C@H](NC(=O)[C@@H]1[C@H]2CCC[C@H]2CN1C(=O)[C@@H](NC(=O)[C@@H](NC(=O)c1cnccn1)C1CCCCC1)C(C)(C)C)C(=O)C(=O)NC1CC1 [telaprevir] | – | – | inhibition in FRET assay (SARS CoV-2 M^pro [4]; at 20 μmol/L): 31%
20 | O=c1sn(-c2cccc3ccccc23)c(=O)n1Cc1ccccc1 [tideglusib] | no inhibitory activity | no inhibitory activity | –
